What was measured:
[1] = test system: human primary mesenchymal stem cells; details: cited from earlier work
[2] = Half-life in human liver microsomes; format: in vitro ADME; details: HLM
[3] = test system: bone disease models; details: rabbit spine fusion and rabbit calvarial defect models; cited from earlier work
[4] = test system: spine fusion; details: compared to other analogues; cited from earlier work
[5] = test system: M2-10B4 osteoprogenitor cells; experiment: Osteogenic gene expression (ALP, BSP, OSX) in M2-10B4 cells; format: cell-based; details: 6 and 14 days of treatment, compared with untreated control cells and unconjugated OXY133, ranking within each linker series
Description: (§1) Oxy133-ALN conjugates were tested in M2-10B4 osteoprogenitor cells to ascertain osteogenic activity and confirm their mechanism of action in inducing osteogenic differentiation. Alkaline phosphatase (ALP) activity, induction of the expression of osteogenic differentiation marker genes (ALP; bone sialoprotein (BSP); and osterix (OSX)), and ^45Ca incorporation as a measure of extracellular matrix mineralization were assayed by our previously reported protocols. The inventors have shown that these in vitro assays translate into in vivo stimulation of bone formation in a variety of animal models. The gene expression for ALP, BSP and OSX induced by the OXY133-ALN conjugates were measured after 6 and 14 days of treatment, the results after 6 days are shown in FIG. 1.
(§2) The succinate-linked series (Oxy166, Oxy167, Oxy174) and the carbamate series (Oxy175, Oxy176, and Oxy177) were assayed as groups. […] It may be that OXY133 must be released from the OXY133-ALN conjugates in order to induce osteogenic gene expression. […] A quantitative ^45Ca mineralization assay was performed with analogues and unconjugated OXY133 over a 30-day incubation period in M2 cells as shown in FIG. 2.

[6] = test system: M2-10B4 osteoprogenitor cells; experiment: Alkaline phosphatase (ALP) activity induction; format: cell-based; details: M2-10B4 cells; result mirrored the gene expression ranking
Description: as §1, §2

[7] = Hydroxyapatite (HAP) binding assay, NMR readout; details: in D2O, internal integration standard maleic acid, low HAP loading (FIG. 4C)
Description: The bone binding properties of bisphosphonates are due to their affinity for calcium in hydroxyapatite (HAP). Relative HAP binding capacity can be measured by incubating a solution of an analyte with HAP and measuring the proportion of compound remaining in the supernatant. […] Reliable quantification of a range of analytes can be obtained by using an inverse-gated decoupling pulse sequence and sufficiently long relaxation delays (d1).
The HAP binding assay was carried out under the following conditions: 1 mL of 4 mM analyte in 50 mM tris buffer at pH 7.5 is incubated with HAP (or no HAP for control) by inversion for 15 minutes. […] The procedure is illustrated in FIG. 3A.
The binding strengths of the OXY133-ALN conjugates of the present invention relative to ALN were determined and any differences in binding affinity contributed by the degree (mono- vs. bis-ALN linked conjugates), position (C3-OH vs. C6-OH), and nature (succinate vs. glycinate) of the Oxy133-ALN conjugates noted. ALN was used as a positive control and benzyl phosphonic acid (BnP) as an established negative control. 600 mg of HAP was used for the “large HAP loading” condition (FIG. 4A) and 150 mg of HAP was used for the “low HAP loading” condition (FIG. 4B).
Experimental conditions: 1 mL of 4 mM analyte in 50 mM tris buffer pH 7.5 is incubated with specified amount of HAP (or no HAP for control) by inversion for 15 min. […]

CCCCCC[C@](C)(O)[C@H]1CC[C@H]2[C@@H]3C[C@H](O)[C@H]4C[C@@H](O)CC[C@]4(C)[C@H]3CC[C@@]21C [OXY133]
osteogenesis in cultured human primary mesenchymal stem cells [1]: induce osteogenesis
half-life [2]: < 5 min
osteogenesis in non-rodent models of bone disease [3]: induce robust osteogenesis
spine fusion in rats [4]: induce spine fusion in rats in an accelerated manner

CCCCCC[C@](C)(O)[C@H]1CC[C@H]2[C@@H]3C[C@H](OC(=O)NCC(=O)NCCCC(O)(P(=O)(O)O)P(=O)(O)O)[C@H]4C[C@@H](O)CC[C@]4(C)[C@H]3CC[C@@]21C [Oxy175]
induction of osteogenic gene expression (ALP, BSP, OSX) [5]: most active
ALP activity induction [6]: most active

CCCCCC[C@](C)(O)[C@H]1CC[C@H]2[C@@H]3C[C@H](O)[C@H]4C[C@@H](OC(=O)NCC(=O)NCCCC(O)(P(=O)(O)O)P(=O)(O)O)CC[C@]4(C)[C@H]3CC[C@@]21C [Oxy177]
HAP binding affinity, 1H-NMR method [7]: binding affinity equivalent to the rest of the OXY-ALN series

Reference: patent US10421773B2, “Bone-selective osteogenic oxysterol bisphosphonate analogs” (The Regents of the University of California, priority 2014, dated 2019)
